Test results published in patent US20180282271A1, “ANTIBIOTIC AMINO ACID MIMETICS” (priority 2017, published 2018).
In brackets after ≈: the same amount, converted by molar mass. Several values for one entry are separate records, joined by “and”; a condition that tells them apart may be missing. Identical values can stand only once. Counter-ions that a name gives are not always drawn. Where a SMILES comes first, the peptide text is derived from it. [ ]: non-standard residue; d: D form. The star is where a group is joined. ξ: configuration not given here. ξF = NC(Cc1ccccc1)C(=O)O; ξhCys = NC(CCS)C(=O)O; ξhSer = NC(CCO)C(=O)O; ξC = NC(CS)C(=O)O; tBu = CC(C)(C)*; NHOH = ON*

How the values were obtained:
[1] = system: E. coli (ATTC 8739); assay: Zone of inhibition test; type: cell-based; conditions: for concentration at which a zone of inhibition was shown: E. coli grown in a Petri dish, FIG. 1A/1B; for strength of the zone of inhibition, in words: cpd. A at 50 μg, Ex. 3 at 12.5 μg
Description: Compound A was tested against L-phenylalanine-(S)-2-amino-N-hydroxy-4-(methylthio)butanamide hydrochloride (Example 3) in a side-by-side comparison in a conventional zone of inhibition test. In this test, both compounds were compared at various concentrations against E. coli (ATTC 8739) grown in a Petri dish using the antibiotic kanamycin as a control.

[2] = system: P. aer.; assay: MIC, conventional methods; type: cell-based, Pseudomonas aeruginosa
Description: (§1) The following L,L-dipeptides were tested for their minimum inhibitory concentrations against three different bacterial strains as set forth in the table below. The testing protocol followed conventional methods and identified a MIC value reported as micrograms per milliliter (μg/mL). Each of the dipeptides had the following structure: Based on the above results, the sidechain of the methionine mimetic was modified to evaluate the effect of such substitution on MIC values. Again, this test used conventional assays to measure the MIC values of each of these modified mimetics.

[3] = system: E. coli; assay: MIC, conventional methods; type: cell-based, Escherichia coli
Description: as §1

[4] = system: S. aureus; assay: MIC, conventional methods; type: cell-based, Staphylococcus aureus
Description: as §1

[5] = system: Escherichia coli MMX 102/ATCC 25922; assay: Broth microdilution MIC, standard CLSI media, ATCC QC organism; type: cell-based
Description: (§2) The test organisms were originally received from clinical sources or from the American Type Culture Collection (ATCC, Manassas, Va.). When received, the organisms were subcultured onto an appropriate agar medium. Following incubation, colonies were harvested from the plate and a cell suspension was prepared in broth containing cryoprotectant and frozen at −80° C. Prior to the assay, a frozen vial of the culture was partially thawed and the contents were streaked for isolation onto an appropriate growth medium. The agar plates were incubated overnight at 35° C. Test organisms included staphylococci and enterococci (Table 1), streptococci (Table 2), Enterobacteriaceae (Table 3), lactose non-fermenting Gram-negative bacilli (Table 4), Haemophilus influenzae (Table 5), Neisseria gonorrhoeae (Table 5), and Clostridium difficile (Table 6).
(§3) The standard CLSI broth medium was employed for the purposes of quality control of the comparator drugs for the MIC assay and was only used for testing of relevant ATCC quality control isolates as established by CLSI (1-5).
(§4) MIC values were determined using a broth microdilution method as recommended by CLSI (1-5).
(§5) Column 1 was filled with 300 μL of the investigational and control agents at the appropriate stock concentration (40× of the highest test concentration). The Biomek 2000 was used to make eleven 2-fold serial dilutions to create a “mother plate.” The wells of column 12 contained no drug and served as growth control wells.
(§6) The daughter plates were prepared on the Biomek FX instrument which transferred 5 μL of drug solution from each well of the mother plate to the corresponding well of each daughter plate in a single step.
(§7) Standardized inoculum of each organism was prepared per CLSI methods (1-5). The inoculum for each organism was dispensed into sterile reservoirs divided by length (Beckman Coulter), and the Biomek 2000 was used to inoculate the plates. Daughter plates were placed on the Biomek 2000 work surface reversed so that inoculation took place from low to high drug concentration. The Biomek 2000 delivered 10 PL of standardized inoculum into each well resulting in a target inoculum size of approximately 5×10^5 CFU/mL. The wells of the daughter plates ultimately contained 185 μL of media, 5 μL of drug solution at 40× the test concentration, and 10 μL of bacterial inoculum prepared in media.
(§8) Plates were stacked 3-4 high, covered with a lid on the top plate, placed into plastic bags, and incubated at 35° C. under the appropriate conditions, with C. difficile incubated anaerobically. Plates were viewed post-incubation at 18-24 hr and again at 48 hr from the bottom using a plate viewer. […] MICs were read where visible growth of the organism was inhibited.

[6] = system: Neisseria gonorrhoeae MMX 683/ATCC 49226; assay: as above; type: cell-based
Description: as §2, §3, §4, §5, §6, §7, §8

[7] = system: Enterococcus faecalis MMX 101/ATCC 29212; assay: as above; type: cell-based
Description: as §2, §3, §4, §5, §6, §7, §8

[8] = system: Pseudomonas aeruginosa MMX 103/ATCC 27853; assay: as above; type: cell-based
Description: as §2, §3, §4, §5, §6, §7, §8

[9] = system: Clostridium difficile MMX 4381/ATCC 700057; assay: as above; type: cell-based; conditions: Clostridioides difficile, ATCC700057, 48 hr results
Description: as §2, §3, §4, §5, §6, §7, §8

[10] = system: Escherichia coli UNT116-1 (ATCC25922); assay: Murine superficial skin infection model; type: in vivo, mice; conditions: for Mean log10 CFU/wound: 50 uL topical +4, 8, 12, 16 & 20 hr, sampled +24 hr
Description: Evaluation of high dose of novel test article(s) for the treatment of a superficial skin infection in mice caused by Escherichia coli. […] Strain has been previously used separately for this infection at […]. Female 5-6 week old CD-1 (18-22 gm) were used in the studies. The mice were housed in groups of 5 with free access to food and water during the study. Cytoxan 150 mg/kg@15 mg/mL on Day-4 ONLY. The mice were anesthetized and kept sedated during the initial procedure under isoflurane vapors (3%). The fur on the back dorsal surface was shaved using electric clippers followed by 'wet shaving' with a disposable razor. The skin was then sterilized with a betadine wash followed by alcohol swab. An area of the shaved skin was then abraded utilizing a sterile gauze pad. Following this procedure, the skin became visibly damaged and characterized by reddening and glistening but no bleeding. […] The skin was then wiped with an alcohol swab and allowed to dry completely. After stripping of the skin, a bacterial infection was initiated by placing on the skin a 5-10 μL droplet containing approximately […] of both bacterium concentrated from overnight cultures in stationary phase. [table] Sponsors test articles were prepared in 0.05% methylcellulose. Fresh formulations were prepared for each day of dosing. The first application of each compound (N=10 mice/group) to the stripped skin of the mice was at 4 hr post-infection then continued q4 hr. For each treatment 50 uL of formulation was applied. Infection control groups' untreated mice were included with each experiment. The test was terminated 4 h after the last topical treatment. Immediately after the mice were euthanized (photographs of the wounds were taken for each group), the wounds, approximately 2 cm2, were excised, rinsed in sterile PBS and homogenized together with 2 ml of phosphate-buffered saline in a Polytron tissue homogenizer. The homogenates were washed once in phosphate-buffered saline to decrease the concentration of ointment. Suitable dilutions of the homogenates were plated on appropriate agar (with the addition of charcoal to avoid the effects of antibiotic carryover) for the organism to determine the number of living bacteria (CFU).

[11] = Table 1, L,L-dipeptides varied in T
[12] = Table 2, side chain Q of the methionine mimetic varied
[13] = Study #2, test articles 700 mg/mL, gentamicin 0.30%
[14] = Study #2, test articles 700 mg/mL, gentamicin 0.30%, topical, +24 hr

Compound	MIC P. aer. [2, 11] [µg/mL]	MIC P. aer. [2, 12] [µg/mL]	MIC E. coli [3, 11] [µg/mL]	MIC E. coli [3, 12] [µg/mL]	MIC S. aur. [4, 11] [µg/mL]	MIC S. aur. [4, 12] [µg/mL]	further results
CSCC[C@H](NC(=O)C(N)Cc1ccccc1)C(=O)NO (stereo partly drawn) [Example 3, L-phenylalanine-(S)-2-amino-N-hydroxy-4-(methylthio)butanamide hydrochloride] (H-[ξF]-Met-{NHOH})	–	–	–	–	–	–	concentration at which a zone of inhibition was shown [1]: 12.5 µg; strength of the zone of inhibition, in words [1]: substantially stronger than the zone of inhibition for cpd. A at 50 μg
CSCC[C@H](NC(=O)CN)C(=O)NO [Compound A]	647 (≈ 2920 µM)	647 (≈ 2920 µM)	138 (≈ 624 µM)	138 (≈ 624 µM)	84 (≈ 380 µM)	84 (≈ 380 µM)	concentration at which a zone of inhibition was shown [1]: 50 µg; strength of the zone of inhibition, in words [1]: quite weak
CSCC[C@H](NC(=O)[C@@H](N)CCCCN)C(=O)NO [Compound E]	>1660	–	312 (≈ 1070 µM)	–	104 (≈ 356 µM)	–	–
C[S+]([O-])CCC(NC(=O)CN)C(=O)NO (stereo not shown) [G]	–	416 (≈ 1750 µM)	–	123 (≈ 518 µM)	–	51 (≈ 215 µM)	–
CCCCSCCC(NC(=O)CN)C(=O)NO (stereo not shown) [K]	–	138 (≈ 524 µM)	–	150 (≈ 570 µM)	–	60 (≈ 228 µM)	–
CSCC[C@H](NC(=O)[C@H](C)N)C(=O)NO [B] (H-Ala-Met-{NHOH})	1040 (≈ 4420 µM)	–	158 (≈ 671 µM)	–	131 (≈ 557 µM)	–	–
C/C(=C\C(=O)OCCCCCCCCC(=O)O)C[C@@H]1OC[C@H](C[C@@H]2O[C@H]2[C@@H](C)[C@H](C)O)[C@@H](O)[C@H]1O [MUP, mupirocin]	–	–	–	–	–	–	MIC ([5]; ATCC25922, 24 hr results): > 256 µg/mL; MIC ([5]; ATCC25922, 48 hr results): > 256 µg/mL; MIC ([6]; ATCC49226, 24 hr results): > 256 µg/mL; MIC ([6]; ATCC49226, 48 hr results): > 256 µg/mL; MIC ([7]; ATCC29212, 24 hr results): 256 µg/mL (≈ 511 µM); MIC ([7]; ATCC29212, 48 hr results): > 256 µg/mL; MIC ([8]; ATCC27853, 24 hr results): > 256 µg/mL; MIC ([8]; ATCC27853, 48 hr results): > 256 µg/mL; MIC [9]: > 256 µg/mL
CC(C)(C)SCCC(NC(=O)CN)C(=O)NO (stereo not shown) [L] (H-Gly-[ξhCys](tBu)-{NHOH})	–	624 (≈ 2370 µM)	–	207 (≈ 786 µM)	–	77 (≈ 292 µM)	–
CSCC[C@H](NC(=O)[C@@H]1CCCN1)C(=O)NO [D] (H-Pro-Met-{NHOH})	270 (≈ 1030 µM)	–	312 (≈ 1190 µM)	–	125 (≈ 478 µM)	–	–
CCSCCC(NC(=O)CN)C(=O)NO (stereo not shown) [J] (H-Gly-[ξhCys](Et)-{NHOH})	–	554 (≈ 2350 µM)	–	129 (≈ 548 µM)	–	60 (≈ 255 µM)	–
CSCC[C@H](NC(=O)[C@@H](N)C(C)C)C(=O)NO [C] (H-Val-Met-{NHOH})	833 (≈ 3160 µM)	–	520 (≈ 1970 µM)	–	416 (≈ 1580 µM)	–	–
COCCC(NC(=O)CN)C(=O)NO (stereo not shown) [O] (H-Gly-[ξhSer](Me)-{NHOH})	–	624 (≈ 3040 µM)	–	374 (≈ 1820 µM)	–	112 (≈ 546 µM)	–
Gentamicin	–	–	–	–	–	–	Mean log10 CFU/wound ([10]; Study #1, test articles 500 mg/mL, gentamicin 0.30%, wounds wrongly sprayed with 70% EtOH for test articles): 2.35 log10 CFU/wound; Mean log10 Change vs. +24 hr ([10]; Study #1, test articles 500 mg/mL, gentamicin 0.30%, topical, +24 hr): −5.37 log10; reduction of bacterial skin burden compared to the 24 hour untreated control [10, 13]: 5.98 log10 CFU/wound; Mean log10 CFU/wound [10, 13]: 2.46 log10 CFU/wound; Log 10 CFU/wound, individual animal [10, 14]: 2.83 Log 10 CFU/wound and 2.35 Log 10 CFU/wound (8×) and 2.95 Log 10 CFU/wound; Mean log10 Change vs. +4 hr [10, 14]: −1.36 log10; Mean log10 Change vs. +24 hr [10, 14]: −5.98 log10; 95.00% CI of diff., Tukey's multiple comparisons test ([10]; Study #2, vs. +4 hr Infection Control): −2.209 to −0.5115; 95.00% CI of diff., Tukey's multiple comparisons test ([10]; Study #2, vs. +24 hr Infection control): −6.678 to −5.292
CSCC[C@H](NC(=O)[C@@H](N)CCC(=O)O)C(=O)NO [Compound F] (H-Glu-Met-{NHOH})	1660 (≈ 5660 µM)	–	554 (≈ 1890 µM)	–	312 (≈ 1060 µM)	–	–
CCCCC(NC(=O)CN)C(=O)NO (stereo not shown) [I]	–	520 (≈ 2560 µM)	–	69 (≈ 339 µM)	–	51 (≈ 251 µM)	–
CC(C)(C)SCC(NC(=O)CN)C(=O)NO (stereo not shown) [N] (H-Gly-[ξC](tBu)-{NHOH})	–	693 (≈ 2780 µM)	–	195 (≈ 782 µM)	–	77 (≈ 309 µM)	–
CS(=O)(=O)CCC(NC(=O)CN)C(=O)NO (stereo not shown) [H]	–	416 (≈ 1640 µM)	–	208 (≈ 821 µM)	–	104 (≈ 411 µM)	–
CCSCC(NC(=O)CN)C(=O)NO (stereo not shown) [M] (H-Gly-[ξC](Et)-{NHOH})	–	832 (≈ 3760 µM)	–	159 (≈ 719 µM)	–	104 (≈ 470 µM)	–
